# Reference: patent publication US20240100053A1, “PHARMACEUTICAL COMPOSITION” (priority 2021, published 2024)
# Legend:
# PK-1 cells [1] = experiment: Cell proliferation by ATP assay, FGFR4-high PK-1 cells; format: cell-based; details: PK-1 cells (high FGFR4); 250 nM, 500 nM, 1 μM or 2 μM; 72 hours; volume-dependent manner; FIG. 3A
# Experimental: (§1) After 72 hours of incubation, the effect on cell proliferation was examined by ATP assay.
# PK-45P cells = experiment: Cell proliferation by ATP assay, FGFR4-low PK-45P cells; format: cell-based; details: PK-45P cells (low FGFR4); 250 nM to 2 μM; 72 hours; FIG. 3A
# Experimental: as §1
# [2] = test system: PK-1 cells and PK-45P cells; experiment: Cytotoxicity by FACS using annexin V and PI; format: cell-based; details: 2 μM, FIG. 3B
# [3] = test system: PK-1 cells and PK-45P cells; experiment: Cell cycle by FACS; format: cell-based; details: after addition of BLU9931, FIG. 3C
# [4] = test system: ERK, AKT, and STAT3 downstream of FGF19/FGFR4 signaling; experiment: Immunoblotting of ERK, AKT, STAT3 in PK-1 cells; format: cell-based; details: 2 μM, FIG. 4
# [5] = test system: ERK, AKT, and STAT3 downstream of FGF19/FGFR4 signaling; experiment: Immunoblotting of ERK, AKT, STAT3 in PK-45P cells; format: cell-based; details: FIG. 4
# PK-1 cells [6] = experiment: Cell invasion, Corning Matrigel Invasion Chamber; format: cell-based; details: 2 μM, 16 hours, FIG. 5
# Experimental: 1×10^5 cells/500 μL of PK-1 cells were seeded on top of the insert.
# PK-1 cells [7] = experiment: Cellular aging: morphology and SA-β-Gal staining; format: cell-based; details: 2 μM
# Experimental: In this example, an aging of cells by BLU9931 was examined. […] This morphological change was considered to be due to cellular aging. The present inventors measured the activity of senescence-associated β-galactosidase (SA-β-Gal), a marker of cellular aging.
# After staining, nuclear staining was performed with DAPI.
# phosphorylation of H2A.X = experiment: DNA damage by phosphorylation of H2A.X (immunofluorescence); format: cell-based; details: incubation time increased from 3 days to 7 days; FIG. 7
# Experimental: BLU9931-treated cells were incubated with anti-γHA2.X mouse monoclonal antibody at 4° C. overnight. Cells were treated with Alexa-Fluor-conjugated secondary antibodies and nuclear staining was performed with DAPI.
# FGFR1-3 = details: general statement in the description, no test shown; cited from earlier work
smiles,measurement,setting,value
C=CC(=O)Nc1cccc(C)c1Nc1ncc2cc(-c3c(Cl)c(OC)cc(OC)c3Cl)ccc2n1 [BLU9931],cell proliferation,PK-1 cells [1],suppressed
same,cell proliferation,PK-45P cells,no effect
same,"apoptosis, necrosis, or cell damage observed in cells",[2],≤ 2%
same,cytotoxicity,[2],no significant effects
same,number of cells in S phase,[3]; 20.7% without,13.5%
same,number of cells in G0/G1 phase,[3]; 60.7% without,70.1%
same,expression of AKT,[4],decreased
same,expression of ERK,[4],decreased
same,expression of STAT3,[4],decreased
same,expression of AKT,[5],not decreased
same,expression of ERK,[5],not decreased
same,expression of STAT3,[5],not decreased
same,cell invasion,PK-1 cells [6],inhibited
same,number of SA-β-Gal positive cells compared to the control cells,PK-1 cells [7]; FIG. 6,increased
same,cell morphology compared to the control cells,"PK-1 cells [7]; PK-1 cells, 1 week, FIG. 6A",larger and flattened
same,DNA damage of the cells,phosphorylation of H2A.X,progressed
same,inhibition of FGFR1-3,FGFR1-3,does not inhibit
